In PubChem BioAssay AID248 (DTP/NCI, 2004) one finds T/C data, which are given here for 18 compounds.

Toxic doses and inconclusive results are not listed.

For the test, the system named is L1210 leukemia ip in BDF1 mice, survival T/C. Briefly: NCI In Vivo Anticancer Drug Screen. Data for tumor model L1210 Leukemia (intraperitoneal) in B6D2F1 (BDF1) mice. The following applies: endpoint: mean survival time, higher = longer survival. The gist of the method: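 Survival endpoint. Drug-treated group vs vehicle group, expressed as T divided by C. Tumor passaged by transplantation.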

Setting [1] is: dose: 100.0 mg/kg/injection, schedule: Q04DX003 (ip), vehicle: saline with Tween-80.
[2] abbreviates: dose: 200.0 mg/kg/injection, schedule: Q04DX003 (ip), vehicle: saline with Tween-80.
The mark [3] stands for this setting: dose: 400.0 mg/kg/injection, schedule: Q04DX003 (ip), vehicle: saline with Tween-80.
The mark [4] stands for this setting: dose: 100.0 mg/kg/injection, schedule: Q01DX009 (ip), vehicle: saline.
[5] abbreviates: dose: 100.0 mg/kg/injection, schedule: Q01DX009 (ip), vehicle: Klucel (hydroxypropylcellulose) (HPC).
The mark [6] stands for this setting: dose: 200.0 mg/kg/injection, schedule: Q01DX009 (ip), vehicle: Klucel (hydroxypropylcellulose) (HPC).
The mark [7] stands for this setting: dose: 400.0 mg/kg/injection, schedule: Q01DX009 (ip), vehicle: Klucel (hydroxypropylcellulose) (HPC).
The mark [8] stands for this setting: dose: 100.0 mg/kg/injection, schedule: Q01DX001 (ip), vehicle: saline.
[9] abbreviates: dose: 200.0 mg/kg/injection, schedule: Q01DX001 (ip), vehicle: saline.
[10] abbreviates: dose: 400.0 mg/kg/injection, schedule: Q01DX001 (ip), vehicle: saline.
The mark [11] stands for this setting: dose: 100.0 mg/kg/injection, schedule: Q04DX003 (ip), vehicle: Klucel (hydroxypropylcellulose) (HPC).
Setting [12] is: dose: 200.0 mg/kg/injection, schedule: Q04DX003 (ip), vehicle: Klucel (hydroxypropylcellulose) (HPC).
Where [13] appears, read: dose: 400.0 mg/kg/injection, schedule: Q04DX003 (ip), vehicle: Klucel (hydroxypropylcellulose) (HPC).
Where [14] appears, read: dose: 100.0 mg/kg/injection, schedule: Q01DX001 (ip), vehicle: carboxymethylcellulose (CMC).
The mark [15] stands for this setting: dose: 200.0 mg/kg/injection, schedule: Q01DX001 (ip), vehicle: carboxymethylcellulose (CMC).
[16] abbreviates: dose: 400.0 mg/kg/injection, schedule: Q01DX001 (ip), vehicle: carboxymethylcellulose (CMC).

With `Cc1ccc(S(=O)(=O)Nc2cccc(C(=O)O)c2)cc1`, the T/C (dose: 100.0 mg/kg/injection, schedule: Q01DX001 (ip), vehicle: other) was 98 % of control; the T/C under setting [1] is 98 % of control; the T/C (dose: 200.0 mg/kg/injection, schedule: Q01DX001 (ip), vehicle: other) is 104 % of control; the T/C under setting [2] was 104 % of control; the T/C (dose: 400.0 mg/kg/injection, schedule: Q01DX001 (ip), vehicle: other) is 102 % of control; the T/C under setting [3] was 98 % of control.
As to `COC(=O)CC(O)C(=O)OC` (centres undefined), the T/C reads like this: under setting [4], 102 % of control; (dose: 100.0 mg/kg/injection, schedule: Q04DX003 (ip), vehicle: saline) 109 % of control; (dose: 200.0 mg/kg/injection, schedule: Q01DX009 (ip), vehicle: saline) 93 % of control; (dose: 200.0 mg/kg/injection, schedule: Q04DX003 (ip), vehicle: saline) 104 % of control; (dose: 400.0 mg/kg/injection, schedule: Q01DX009 (ip), vehicle: saline) 96 % of control; (dose: 400.0 mg/kg/injection, schedule: Q04DX003 (ip), vehicle: saline) 110 % of control.
Consider `Cc1ccc(NC(=S)N2CCCCC2)cc1C`, for which the T/C under setting [5] was 92 % of control, the T/C under setting [6] was 93 % of control and the T/C under setting [7] is 101 % of control.
Turning to `Cn1c(N)c(N=CC2CCCCC2)c(=O)n(C)c1=O`, the T/C reads like this: under setting [8], 100 % of control; under setting [9], 100 % of control; under setting [10], 102 % of control.
As for `Cc1cc(C)c(C(=O)/C=C/c2ccccc2)c(C)c1`, the T/C is, setting by setting: under setting [5], 91 % of control; under setting [11], 104 % of control; under setting [6], 94 % of control; under setting [12], 101 % of control; under setting [7], 94 % of control; under setting [13], 95 % of control.
As to `O=C1NC(=O)C(c2ccsc2)(c2cccs2)N1` (centres undefined), the T/C runs as follows: under setting [14], 97 % of control; under setting [15], 89 % of control; under setting [16], 100 % of control.
As for `COC(C)CCC(=O)O.[Ag]` (centres undefined), the T/C was 95 % of control (dose: 6.25 mg/kg/injection, schedule: Q01DX009 (ip), vehicle: saline with Tween-80); 91 % of control (dose: 12.5 mg/kg/injection, schedule: Q01DX009 (ip), vehicle: saline with Tween-80); 91 % of control (dose: 12.5 mg/kg/injection, schedule: Q04DX003 (ip), vehicle: saline with Tween-80); 95 % of control (dose: 25.0 mg/kg/injection, schedule: Q01DX009 (ip), vehicle: saline with Tween-80); 96 % of control (dose: 25.0 mg/kg/injection, schedule: Q04DX003 (ip), vehicle: saline with Tween-80).
Turning to `O=C(CCCCCCCCC(=O)NCCBr)NCCBr`, the T/C reads like this: (dose: 100.0 mg/kg/injection, schedule: Q01DX005 (ip), vehicle: Klucel (hydroxypropylcellulose) (HPC)) 98 % of control; (dose: 100.0 mg/kg/injection, schedule: Q04DX002 (ip), vehicle: Klucel (hydroxypropylcellulose) (HPC)) 104 % of control; (dose: 200.0 mg/kg/injection, schedule: Q01DX005 (ip), vehicle: Klucel (hydroxypropylcellulose) (HPC)) 94 % of control; (dose: 200.0 mg/kg/injection, schedule: Q04DX002 (ip), vehicle: Klucel (hydroxypropylcellulose) (HPC)) 101 % of control; (dose: 400.0 mg/kg/injection, schedule: Q01DX005 (ip), vehicle: Klucel (hydroxypropylcellulose) (HPC)) 102 % of control; (dose: 400.0 mg/kg/injection, schedule: Q04DX002 (ip), vehicle: Klucel (hydroxypropylcellulose) (HPC)) 101 % of control.
On to `CC(=O)Nc1ccc2c([N+](=O)[O-])cccc2c1-c1c(NC(C)=O)ccc2c([N+](=O)[O-])cccc12`, for which the T/C runs as follows: under setting [5], 101 % of control; under setting [11], 88 % of control; under setting [6], 105 % of control; under setting [12], 97 % of control; under setting [7], 98 % of control; under setting [13], 92 % of control.
For the compound `CCCCCCCC(=O)N1CCCC(C)C1` (centres undefined), the T/C is 96 % of control (dose: 100.0 mg/kg/injection, schedule: Q04DX002 (ip), vehicle: saline); 114 % of control (dose: 200.0 mg/kg/injection, schedule: Q04DX002 (ip), vehicle: saline); 114 % of control (dose: 400.0 mg/kg/injection, schedule: Q04DX002 (ip), vehicle: saline).
As for `O=[N+]([O-])c1cc(Cl)ccc1S(=O)(=O)F`, the T/C by setting is: (dose: 100.0 mg/kg/injection, schedule: Q04DX003 (ip), vehicle: carboxymethylcellulose (CMC)) 103 % of control; (dose: 200.0 mg/kg/injection, schedule: Q04DX003 (ip), vehicle: carboxymethylcellulose (CMC)) 94 % of control.
Take `Cc1ccc(NP(Br)(c2ccccc2)(c2ccccc2)c2ccccc2)cc1`: under “dose: 75.0 mg/kg/injection, schedule: Q01DX001 (ip), vehicle: acetone”, the T/C is 95 % of control.
On to `CN1C(c2ccccc2)(c2ccccc2)c2ccccc2S1(=O)=O`, for which the T/C is 95 % of control under setting [14], 95 % of control under setting [15] and 93 % of control under setting [16].
In the case of `COC(=O)C1(C(=O)OC)CCC=CC1=O`, the T/C (dose: 100.0 mg/kg/injection, schedule: Q01DX009 (ip), vehicle: saline with Tween-80) was 107 % of control; the T/C under setting [1] was 97 % of control; the T/C (dose: 200.0 mg/kg/injection, schedule: Q01DX009 (ip), vehicle: saline with Tween-80) is 93 % of control; the T/C under setting [2] was 101 % of control; the T/C (dose: 400.0 mg/kg/injection, schedule: Q01DX009 (ip), vehicle: saline with Tween-80) is 109 % of control; the T/C under setting [3] is 106 % of control.
On to `CN(C)/C=N\c1ncnc2c1ccn2C1OC(CO)C(O)C1O` (centres undefined), for which the T/C was 104 % of control (dose: 1.56 mg/kg/injection, schedule: Q01DX005 (ip), vehicle: saline); 109 % of control (dose: 1.56 mg/kg/injection, schedule: Q01DX009 (ip), vehicle: saline); 116 % of control (dose: 3.12 mg/kg/injection, schedule: Q01DX005 (ip), vehicle: saline); 114 % of control (dose: 3.12 mg/kg/injection, schedule: Q01DX009 (ip), vehicle: saline); 93 % of control (dose: 6.25 mg/kg/injection, schedule: Q01DX005 (ip), vehicle: saline); 88 % of control (dose: 6.25 mg/kg/injection, schedule: Q01DX009 (ip), vehicle: saline).
For the compound `CC(=O)[C@@]12OC(C)(C)O[C@@H]1C[C@H]1[C@@H]3C[C@H](C)C4=CC(=O)CC[C@]4(C)[C@H]3CC[C@@]12C`, the T/C was 103 % of control (dose: 100.0 mg/kg/injection, schedule: Q01DX001 (ip), vehicle: steriod suspending solution); 100 % of control (dose: 100.0 mg/kg/injection, schedule: Q04DX003 (ip), vehicle: steriod suspending solution); 98 % of control (dose: 200.0 mg/kg/injection, schedule: Q01DX001 (ip), vehicle: steriod suspending solution); 98 % of control (dose: 200.0 mg/kg/injection, schedule: Q04DX003 (ip), vehicle: steriod suspending solution); 97 % of control (dose: 400.0 mg/kg/injection, schedule: Q01DX001 (ip), vehicle: steriod suspending solution); 97 % of control (dose: 400.0 mg/kg/injection, schedule: Q04DX003 (ip), vehicle: steriod suspending solution).
With `CN(C)C(=S)SCC(=O)O`, the T/C by setting is: (dose: 100.0 mg/kg/injection, schedule: Q04DX002 (ip), vehicle: saline with Tween-80) 100 % of control; (dose: 200.0 mg/kg/injection, schedule: Q04DX002 (ip), vehicle: saline with Tween-80) 96 % of control; (dose: 400.0 mg/kg/injection, schedule: Q04DX002 (ip), vehicle: saline with Tween-80) 100 % of control.
As for `O=C(OCC1OC(n2cnc3c(=S)nc[nH]c32)C(OC(=O)c2ccc(Cl)cc2)C1OC(=O)c1ccc(Cl)cc1)c1ccc(Cl)cc1` (centres undefined), the T/C is 104 % of control under setting [8]; 122 % of control under setting [4]; 101 % of control under setting [9]; 113 % of control under setting [10]; 166 % of control (dose: 800.0 mg/kg/injection, schedule: Q01DX009 (ip), vehicle: saline).
